The values below come from patent publication US4118507A, “Benzodioxincarboxamide lipogenesis inhibitors” (Shell Oil Company, priority 1977, dated 1978).

For assay [1], the system named is lipogenesis in swine adipose tissue. As to the kind of experiment: percent inhibition of lipogenesis from radioactive glucose in pig (swine) adipose tissue slices. It counts as cell-based. The settings on record: 100 micrograms per milliliter, 37° C., 2 hours. An excerpt: (§1) The manner in which they cause this effect is not known with certainty; it is believed that they interfere with the synthesis of fatty acids in the tissues. Their effectiveness for this purpose has been ascertained by immersing samples of mammalian liver or adipose tissue in a liquid medium containing radioactive glucose and the test chemical for a period of time, then isolating the lipid from the treated tissue and determining the up-take of the radioactive carbon by means of scintillation counting techniques. These tests were conducted with both liver and adipose tissues, because in some animals the primary site of lipogenesis appears to be liver tissue, while in others it appears to be adipose tissue. The test animals were pigs, sheep, rabbits, cats and dogs.
Described in more detail, the tests were conducted according to the following general procedure:
Tissue slices (200 milligrams for liver; 150 milligrams for adipose tissue) were incubated, at 37° C. for 2 hours with shaking in 3 milliliters of Krebs-Ringer bicarbonate solution containing one-half the normal calcium ion concentration, 60 micromoles of glucose, 0.5 micro-Curie of glucose-U-^14 C, 300 microunits of insulin, and 5% dimethyl sulfoxide (DMSO). The test compounds were added as a solution or suspension in DMSO and were present at a concentration of 100 micrograms per milliliter of the incubation mixture.
The incubation was terminated by addition of 0.25 milliliter of 1 N sulfuric acid. The resulting mixture was extracted with a total of 25 milliliters of chloroform:methanol (2:1, v/v). The extracts were washed according to Folch et al. (J. Biol. Chem., 226, 497-509, (1957)), air dried, and counted in a liquid scintillation counter with 15 milliliters of counting fluid (two parts toluene containing 0.4% w/v New England Nuclear Omnifluor: 1 part Triton X-100). The tests were conducted in triplicate and were accompanied by control tests in which all ingredients,proportions and conditions were the same except that no test compound was included. From the data obtained, the percent inhibition of lipid synthesis by the test compound was calculated in each case.
Compound 1 was tested with respect to all of the indicated animal species. The other three compounds were tested only with respect to the pig.
From these and other tests, it has been established that in pigs there is little lipogenic activity in the liver tissue. From these and other tests, it also has been established that swine adipose tissue utilizes glucose for lipogenesis, and to be the major site of fatty acid synthesis. The data obtained from the tests using adipose tissue and glucose are set out in Table 1, as the percent inhibition of lipogenesis compared to the results obtained in the control tests wherein only the test compound was omitted.

For assay [2], the system named is glucose incorporation in the liver. As to the kind of experiment: inhibition of glucose incorporation into lipids in sheep liver tissue slices. The assay is classed as cell-based. The settings on record: 100 micrograms per milliliter, 37° C., 2 hours.
Source text: as §1
(§2) Described in more detail, the tests were conducted according to the following general procedure: […]
(§3) The incubation was terminated by addition of 0.25 milliliter of 1 N sulfuric acid. […] The extracts were washed according to Folch et al. (J. Biol. Chem., 226, 497-509, (1957)), air dried, and counted in a liquid scintillation counter with 15 milliliters of counting fluid (two parts toluene containing 0.4% w/v New England Nuclear Omnifluor: 1 part Triton X-100). […] From the data obtained, the percent inhibition of lipid synthesis by the test compound was calculated in each case. […]

In assay [3] the test system is glucose incorporation in adipose tissue. As to the kind of experiment: inhibition of glucose incorporation into lipids in sheep adipose tissue slices. It counts as cell-based. The settings on record: 100 micrograms per milliliter, 37° C., 2 hours.
Source text: as §1, §2, §3

Assay [4] has as its system glucose incorporation into liver. Description: inhibition of glucose incorporation into rabbit liver tissue slices. The assay is classed as cell-based, rabbits. The following applies: 100 micrograms per milliliter, 37° C., 2 hours.
Source text: as §1, §2, §3

The test system of assay [5] is glucose incorporation into adipose tissue. As to the kind of experiment: inhibition of glucose incorporation into rabbit adipose tissue slices. The following applies: 100 micrograms per milliliter, 37° C., 2 hours. The assay is classed as cell-based, rabbits.
Source text: as §1, §2, §3

For assay [6], the system named is lipogenesis from glucose in the liver. Description: inhibition of lipogenesis from glucose in cat liver tissue slices. The assay is classed as cell-based, cats. The settings on record: 100 micrograms per milliliter, 37° C., 2 hours.
Source text: as §1, §2, §3

The subject of assay [7] is glucose utilization in adipose tissue. As to the kind of experiment: inhibition of glucose utilization in cat adipose tissue slices. It counts as cell-based, cats. The following applies: 100 micrograms per milliliter, 37° C., 2 hours.
Source text: as §1, §2, §3

For assay [8], the system named is lipogenesis from glucose in adipose tissue. Description: inhibition of lipogenesis from glucose in dog adipose tissue slices. The assay is classed as cell-based, dogs. The following applies: 100 micrograms per milliliter, 37° C., 2 hours.
Source text: as §1, §2, §3

In assay [9] the test system is swine adipose tissue lipid synthesis. As to the kind of experiment: in vivo inhibition of swine adipose tissue lipid synthesis (oral dosing in feed, lipogenesis in biopsy slices). The settings on record: pigs, approximately 25 milligrams per kilogram per day in feed for seven days. Here is the method:
Compound 1 also was tested to determine the in vivo inhibition of swine adipose tissue lipid synthesis, as follows: pigs weighing about 20 kilograms were administered a fixed drug dose of approximately 25 milligrams of drug per kilogram of animal body weight per day for seven consecutive days. The drug was formulated to contain 10% w active ingredient and was prepared as coarse granules using 4% w plasdene as the granulating agent and lactose as the carrier. […] The daily drug or placebo dose was added to 1.2 kilograms of swine ration; about one-third of the total was fed at 0800, 1200, and 1600 hours. Biopsy samples were obtained from the dorsal subcutaneous adipose tissue (ca. 1 gram) in the neck region before drug administration, after 7 days of drug administration, and 6 days after withdrawal of drug. Adipose tissue slices were prepared from the biopsy sample, and in vitro lipogenesis was determined with radioactive glucose as substrate. The incubation was similar to that previously described except there was no DMSO or test compound in the flasks.

Each structure is given as a SMILES string.

For `C=CCNC(=O)C1COc2cc(C)ccc2O1` (centres unmarked) [Compound 6, 2,3-dihydro-6-methyl-N-(2-propenyl)-1,4-benzodioxin-2-carboxamide], the “Percent Inhibition of lipogenesis compared to control” value (“Percent Inhibition of lipogenesis” for short) in assay [1] is given as 80%.
Turning to `C=CCNC(=O)C1COc2cc(Cl)ccc2O1` (centres unmarked) [Compound 3A, 6-chloro-2,3-dihydro-N-(2-propenyl)-1,4-benzodioxin-2-carboxamide], in assay [1], the “Percent Inhibition of lipogenesis” value turned out to be 38%.
On the same count and under the same terms, for `C=CCNC(=O)C1COc2ccc(C)cc2O1` (centres unmarked) [Compound 7] the value was 55%; for `C=CCNC(=O)[C@@H]1Oc2ccccc2O[C@@H]1C` (relative stereo) [Compound 4, 2,3-dihydro-3-methyl-N-(2-propenyl)-1,4-benzodioxin-2-carboxamide cis isomer], 68%.
On to `C=CCNC(=O)C1(C)COc2ccccc2O1` (centres unmarked) [Compound 2, 2,3-dihydro-N-(2-propenyl)-2-methyl-1,4-benzodioxin-2-carboxamide], for which, in assay [1], the “Percent Inhibition of lipogenesis” value came out at 41%.
As for `C=CCNC(=O)C1COc2ccc(F)cc2O1` (centres unmarked) [Compound 8, 7-fluoro-2,3-dihydro-N-(2-propenyl)-1,4-benzodioxin-2-carboxamides], the “Percent Inhibition of lipogenesis” value in [1] was 72%.
Take `C=CCNC(=O)C1COc2ccccc2O1` (centres unmarked) [Compound 1, 2,3-dihydro-N-(2-propenyl)-1,4-benzodioxin-2-carboxamide]: the “Percent Inhibition of lipogenesis” value in [1] is 75%. The “inhibition of glucose incorporation in the liver” value in assay [2] is recorded as 27%. The “inhibition of glucose incorporation in adipose tissue” value in [3] stood at 50%. In assay [4], the “inhibition of glucose incorporation into liver” value worked out at 32%. For the same compound, in assay [5], the “inhibition of glucose incorporation into adipose tissue” value came out at 30%. Also, the “inhibition of lipogenesis from glucose in the liver” value in assay [6] is listed as 35%. Also, in assay [7], the “inhibition of glucose utilization in adipose tissue” value is on record as “did not inhibit glucose utilization in adipose tissue”. The “inhibition of lipogenesis from glucose in adipose tissue” value in [8] was determined as 54%. Moreover, in [9] (biopsy 6 days after withdrawal), the “effect on lipogenic rate at day 13, compared to control animals” value is recorded as “had significantly reduced the lipogenic rate at day 13”. Besides, the “effect on lipogenesis at day 7, compared to control animals” value in assay [9] (biopsy after 7 days of administration) is reported as “had not significantly affected lipogenesis at day 7”.
With `C=CCNC(=O)C1COc2cc(C(C)(C)C)ccc2O1` (centres unmarked) [Compound 5, 6-(1,1-dimethylethyl)-2,3-dihydro-N-(2-propenyl)-1,4-benzodioxin-2-carboxamide], the “Percent Inhibition of lipogenesis” value in assay [1] is listed as 36%.
